This is an account of results in patent publication US20030165475A1, “Non-lethal methods for conditioning a recipient for bone marrow transplantation” (priority 1993, published 2003).

The structures appear in SMILES notation. Where “and” joins values, the source holds several entries; their conditions need not be identical. Equal values may be shown once. Read-outs that look alike come from different tables or passages of the source.

The test system of assay [1] is C57BL/6J mice. The note with it: C57BL/6J (n=6); 300 cGy TBI + 200 mg/kg CyP. The source says: (§1) Three to five week old C57BL/10-Cd4^tml(CD4-KO;H2^b, n=5), C57BL/6J-CD4^tm/mak (CD4-KO; H2^b, n=15) CD57BL/6JCD8α^tm/mak (CD8-KO; H2^b, n=16), C57BL/6J (B6; H2^b, n=6), C57BL/6-6d4^tm/mak (CD4-KO) and C57BL/6-Cd8^tm/mak (CD8-KO)recipient mice, as well as three to five week old B10.BR/SgSnJ (B10.BR, H2^k) donor mice were purchased from the Jackson Laboratory (Bar Harbor, Me.). Knock-out mice were housed in a special pathogen-free barrier facility, while donor mice were housed in a conventional barrier animal facility. Mice were cared for according to National Institute of Health animal care guidelines.
(§2) Bone marrow was prepared as previously described (Ildstad and Sachs, Nature, 307:168 (1984)). Briefly, B10.BR donor mice were euthanized and tibias and femurs harvested. Bone marrow was expelled from the bones with Media 199 (Gibco, Grand Island, N.Y.) containing 10 μg/ml Gentamicin (Gibco) (MEM). The cells were filtered through sterile nylon mesh with 100 μm pores, spun for minutes at 200×g and 4° C., and resuspended in MEM. A cell count was performed and the cells were diluted to a final concentration of 15×10^6 bone marrow cells per 1 ml of MEM.
(§3) CD4-KO and CD8-KO mice were treated with TBI from a cesium source (Gamma-cell 40, Nordion, Ontario, Canada). Doses from 0 to 300 cGy were administered according to the experimental groups. Animals were transplanted with 1 ml MEM containing 15×10^6 B10.BR bone marrow cells via lateral tail vein injection within 4 hours after irradiation.
(§4) Peripheral blood was obtained from the mice by tail-vein bleeding. The blood was collected in heparinized Eppendorf tubes 28 days, 3 months and 6 months after BMT. Fifty μl of whole blood were incubated for 7 minutes with 2 ml of lysing buffer (8.29 g of NH4Cl, 1.0 g of KHCO3 and 0.0372 g Na2EDTA in 1 liter H2O to lyse red blood cells. The cells were washed with 2 ml FACS medium (0.36 g NaHCO3, 1.0 g NaN3 and 1.0 g bovine serum albumin in 1 liter Hanks Balanced Salt Solution and spun at 200×g for 10 minutes at 4° C. After the supernatant was carefully decanted, cells were mixed with 10 μl diluted monoclonal antibodies (mAb; details discussed infra) and incubated for 30 minutes at 4° C. in the dark. The appropriate dilution for the use of the mAb was determined in titration experiments prior to use. After the incubation, the cells were washed twice with 2 ml of FACS medium and spun at 200×g for minutes at 4° C. Finally, the cells were fixed with 1% paraformaldehyde in PBS. The analyses were carried out on a FACS-Calibur (Becton Dickinson, Mountain View, Calif.) with CellQuest software (Becton Dickinson).
(§5) PBL were stained with mAb specific for MHC Class I antigens of donor (FITC conjugated anti-H2K^k, 36-7-5, mouse IgG1) and recipient (PE-conjugated anti-H2K^b, AF6-88.5, mouse IgG2a) origin to determine the percentage of donor chimerism. Multi-lineage engraftment was assessed by staining with biotinylated anti-H2K^k (36-7-5, mouse IgG1), FITC-conjugated anti-H2K^b (AF6-88.5, mouse IgG2a) and PE-conjugated lineage markers 3 months after BMT. The biotinylated antibody was recovered with Streptavidin-Allophycocyanin (SA-APC). The following antibodies were used as lineage markers: anti-GR-1 (RB6-8C5, rat IgG2^b); anti-MAC-1 (M1/70, rat IgG2^b); anti-CD4 (RM4-5, rat IgG2a); anti-CD8α (53-6.7, rat IgG2a); anti-B220 (RA3-6B2, rat IgG2a); anti-NK1.1 (PK136, mouse IgG2a); anti-TCR-β chain (H57-597, hamster IgG); and anti-γδ-TCR (GL3, hamster IgG). Non-specific background staining was controlled for by using isotype control antibodies directed against irrelevant antigens and conjugated with the same color as the experimental antibody (i.e., anti-TNP mouse IgG2a conjugated with PE served as isotype control for PE-conjugated anti-H2K^b mouse IgG2a). All mAb were obtained from PharMingen (San Diego, Calif.). SA-APC was purchased from Becton Dickinson (Mountain View, Calif.).

Assay [2] deals with CD4-KO mice. The following applies: 300 cGy TBI + 200 mg/kg CyP.
Text: as §1, §2, §3, §4, §5

The test system of assay [3] is CD8-KO mice.
Text: as §1, §2, §3, §4, §5

On to `O=P1(N(CCCl)CCCl)NCCCO1` (stereo not drawn) [CyP, cyclophosphamide], for which the “% animals that engrafted” value was found to be 0% in assay [1]; 0% in assay [2] (C57BL/6-Cd4 tm/mak (n=15)); 0% in assay [2] (C57BL/10-Cd4 tml (n=5)); 100% in assay [3] (C57BL/6-Cd8a tm/mak, 300 cGy TBI + 200 mg/kg CyP day 2). Further, in assay [2] (15 C57BL/6-Cd4 tm/mak mice), the “CD4-KO mice that engrafted” value is “None”. Further, the “animals with donor chimerism” value in assay [3] (200 mg/kg CyP alone without irradiation, 28 days after BMT) was 6 of 6 and Six of 6 and 6 out of 6. In addition, the “level of donor chimerism” value in assay [3] (CyP and 100 cGy TBI (n=6)) came to 11±0.4%; in assay [3] (CyP and 200 cGy TBI (n=6)), 32.7±1.5%. For the same compound, the “average level of donor chimerism” value in assay [3] (CyP and 300 cGy TBI (n=16)) is on record as 45.7%±2.5.
